Laboratory results: patent US9949980B2, “Drugs to prevent HPV infection” (Wisconsin Alumni Research Foundation, priority 2008, dated 2018)
Read-outs that look alike come from different tables or passages of the source.

Experiments:
HaCaT cells = type: cell-based, human; details: for CD50 (cytotoxicity): human, 76 h
Excerpt: (§1) FIG. 2. Dose dependence inhibition of HPV16 pseudovirus infection in a human keratinocyte cell line (HaCaT). Graphed are the dose-dependent effects of lead compounds shown in Table 2 on the efficiency of infection by HPV16 pseudovirus scored by measuring luciferase reporter activity (squares) as well as their effects on cell viability (circles).
(§2) All but one of these compounds (6 is […]) were repurchased and subjected to a tertiary screen performed in the human keratinocyte cell line, HaCaT, and using HPV16 pseudoviruses encoding a third reporter gene, firefly luciferase, transcribed from a different, E1a, promoter.
(§3) At 4 hours prior to exposure of cell to pseudoviruses, compounds were added to plates in 1% DMSO final concentration at the indicated amounts. Four hours later, 10 multiplicity of infection (M.O.I.) units of HPV16 pseudovirus carrying the plasmid LucF was added to the cells. 72 hours later, cells were lysed and luciferase assays performed using the Luciferase Assay System (Promega Cat. #E1501). For infection studies with HPV11 and HPV31 pseudoviruses, 200 virus genome equivalents (vge) of virus per cell were used. Cell viability was assessed in parallel plates by Luminescent Cell Viability Assay (Promega Cat. #G7571).

in vitro = details: human, Viability (CelTiter Glow)
HPV16 pseudoviruses [1] = assay: Virus particle subcellular localization, fluorescently labeled HPV16 pseudovirus; type: cell-based; details: 24 hours post infection
Protocol: FIG. 6. Localization of HPV16 pseudovirions 24 hours post infection. Shown are representative confocal images of cells exposed to cyberXX-labeled HPV16 pseudovirus in the absence (FIG. 6B) or presence of Compound 13 (FIG. 6C) and Compound 14 (FIG. 6D). FIG. 6A is a mock infection negative control. Nuclei are stained.
Mechanism of action of Compounds 13 and 14. To begin to assess the mechanism by which Compounds 13 and 14 inhibit HPV infection, we performed fluorescent microscopy studies on cells treated or not treated with Compounds 13 and 14 that were exposed to HPV16 pseudoviruses in which the encapsidated DNA was labeled with a fluorescent intercalating agent. […] At 24 hours post infection we observed a typical perinuclear staining for the fluorescently labeled HPV16 pseudoviruses in both the untreated and drug treated cells.
Virus particle sub cellular localization studies: A target DNA was labeled with Syto-14 (Invitrogen, 25 NM) in 293FT cells before virus was being packaged. HaCaT cells were infected with the labeled HPV pseudovirus for 24 hours, harvested, and fixed with 1% formaldehyde for 30 minutes, followed by permeabilization with 0.2% Triton X-100 for 10 minutes. Cells were blocked with Image-IT FX Signal Enhancer (Invitrogen) for 30 minutes and incubated with rabbit anti-lamin B1 (ab16048, Abcam) antibodies. […] Virus localization was determined by fluorescence.

HPV16 pseudoviruses [2] = assay: microbe, parasite or virus in culture; type: cell-based; details: Human papillomavirus 16, HEK-293T, 48 h
Method in brief: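 Viability was read by CellTiter Glo luminescence on the same wells used for the SEAP infection read-out, after 48 hrs further incubation.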

HPV16 pseudovirus = assay: microbe, parasite or virus in culture; type: cell-based; details: Human papillomavirus 16, HaCaT, read-out: IC50, HPV16 pseudovirus infection
Excerpt: as §1, §2
The infectivity assay was repeated at least twice and each assay was performed in replicate (n≥3).
as §3

[3] = tested on: HPV16, HPV11, and HPV31 pseudovirus; assay: Infection by HPV16, HPV11 and HPV31 pseudovirus in HaCaT cells (all genotypes together); type: cell-based, HPV; details: for IC50 in words for all three HPV pseudovirus infections: HPV16, HPV11, HPV31, 0.1 to 100 μM; for Concentration that completely inhibited all the tested genotypes: HPV16, HPV11, HPV31 pseudovirus
Protocol: FIG. 4. Compounds 13 and 14 can inhibit infection by multiple anogenital HPVs. Shown are results from infection experiments in HaCaT cells monitoring the efficiency of infection by HPV16, HPV11 and HPV31 pseudovirus carrying the firefly luciferase gene in the absence (0 μM, vehicle only) or increasing concentrations (0.1 to 100 μM) of Compound 13 or 14. The Y axis is the relative efficiency of infection (squares) or cell viability (circles) as a function of drug concentration (X axis). All data points represent the average of values from triplicate samples. […] Data for HPV16 is the also plotted in FIG. 2.
Infection experiments in human keratinocyte cell line, HaCaT, monitoring the efficiency of infection by HPV16, HPV11, and HPV31 pseudovirus carrying the firefly luciferase gene were conducted in the absence or increasing concentrations (0.1 to 100 μM) of Compounds 13 and 14 (see FIG. 4).
In vitro data were collected at 3 μM concentration. […] A human treatment dosage is preferably between 0.1 μM and 100 mM, more preferably between 1 and 10 mM.
as §3

[4] = read-out: Infectivity (SEAP Activity), 3 μM HTS standard concentration, 293T cells, 48 hrs
[5] = read-out: Infectivity vs. viability, 3 μM HTS standard concentration, ratio infectivity/viability
[6] = read-out: Primary HTS SEAP vs Viability, Table 2, first pair of columns (c2)
[7] = read-out: Primary HTS SEAP vs Viability, Table 2, second pair of columns (c4)

CCCn1c2ccccc2c2nnc(SC(CC)C(=O)Nc3ccc(Cl)cn3)nc21 (stereo not shown) [Compound 13, N-(5-chloro-2-pyridinyl)-2-[(5-propyl-5H-[1,2,4]triazino[5,6-b]indol-3-yl)thio]butanamide]
Toxicity / cytotoxicity in words (HaCaT cells): little to no cytotoxicity
CD50 (cytotoxicity) (HaCaT cells): 25 µM
viability at 52 h, 3 μM (in vitro): 102%
Step at which the compound inhibits infection (entry of labeled pseudovirus) (HPV16 pseudoviruses [1]): function post-entry
activity at 3 µM (HPV16 pseudoviruses [2]; [4]): 21.8%
activity at 3 µM (HPV16 pseudoviruses [2]; [5]): 21.4%
activity at 3 µM (HPV16 pseudoviruses [2]; [6]): 8.25%
activity at 3 µM (HPV16 pseudoviruses [2]; [7]): 35.4%
IC50 (HPV16 pseudovirus): 800 nM
IC50 in words for all three HPV pseudovirus infections [3]: Submicromolar
Concentration that completely inhibited all the tested genotypes [3]: 10 µM

Cc1cc(C(c2ccc(F)cc2)c2cc(C)c(NC(=O)c3ccccc3)c(C)c2)cc(C)c1NC(=O)c1ccccc1 [Compound 14, N,N′[[(4-fluorophenyl)methylene]bis(2,6-dimethyl-4,1-phenylene)]dibenzamide]
Toxicity / cytotoxicity in words (HaCaT cells): little to no cytotoxicity
CD50 (cytotoxicity) (HaCaT cells): > 100 µM
viability at 52 h, 3 μM (in vitro): 110%
Step at which the compound inhibits infection (entry of labeled pseudovirus) (HPV16 pseudoviruses [1]): function post-entry
activity at 3 µM (HPV16 pseudoviruses [2]; [4]): 51%
activity at 3 µM (HPV16 pseudoviruses [2]; [5]): 46.5%
activity at 3 µM (HPV16 pseudoviruses [2]; [6]): 65.4%
activity at 3 µM (HPV16 pseudoviruses [2]; [7]): 36.6%
IC50 (HPV16 pseudovirus): 200 nM
IC50 in words for all three HPV pseudovirus infections [3]: Submicromolar
Concentration that completely inhibited all the tested genotypes [3]: 4 µM
